# Structures can show the parent of a compound that is named as a salt.
# Target: T1, human TRPV4 (Homo sapiens, UniProt Q9HBA0)
# T1 construct: expressed in transfected cells
# Test: Fluorometric cell-based Ca2+ flux assay, HEK-293 cells stably overexpressing human TRPV4
# Settings: HEK-293 stably overexpressing human TRPV4; agonist GSK1016790A 30 nM
# Method: Fluorometric cell-based Ca^2+ flux assays were performed to assess TRPV4 antagonist activity and determine potency (IC50 values) in human embryonic kidney-293 cells (HEK-293) that stably overexpress human TRPV4. The assays were performed according to methods described in: Deering-Rice, C. E., Johansen, M. E., Roberts, J. K., Thomas, K. C., Romero, E. G., Lee, J., Yost, G. S., Veranth, J. M., and Reilly, C. A. (2012), Mol. Pharmacol. 81(3), 411-419; Shapiro, D., Deering-Rice, C. E., Romero, E. G., Hughen, R. W., Light, A. R., Veranth, J. M., and Reilly, C. A. (2013), Chem Res. Toxicol., 26, 750-758; and Deering-Rice, C. E., Mitchell, V. K., Romero, E. G., Abdel Aziz, M. H., and Reilly, C. A. (2014), Pharmacol. Res. & Perspectives. 2(5), 1-10.
# The HEK-293 cells stably overexpressing human TRPV4 were grown to confluence in 2% (w/v) gelatin-coated 96-well plates in DMEM:F12 media supplemented with 5% fetal bovine serum, 1× penicillin/streptomycin (Invitrogen) and Geneticin (300 μg/mL).
# The HEK-293 cells were prepared for assay by replacing the growth media with a 1:1 solution of LHC-9 and Fluo 4-Direct (Invitrogen) reagent containing Fluo 4-AM, pluronic F-127, probenecid, and a proprietary quencher dye. The cells were then incubated at 37° C. for 1 h in a cell culture incubator. The cells were subsequently washed by replacing the loading solution with LHC-9 containing 1 mM water-soluble probenecid (Invitrogen), 750 μM Trypan Red (ATT Bioquest), and a test compound (at various concentrations). The cells were incubated for an additional 30 minutes at 37° C. to allow for Fluo 4-AM cleavage and activation, as well as equilibration to both the test compounds and Fluo 4.
# An agonist treatment solution (90 nM GSK1016790A, a potent activator of TRPV4) was prepared in LHC9 at 3× concentration and 25 μL was added to 50 μL of media on the cells in 96 well plates, providing a final concentration of 30 nM. Changes in cellular fluorescence were monitored with a BMG Labtech NOVOStar fluorescence plate reader for 1 minute at 37° C. Data were quantified as the maximum rate of change in fluorescence intensity (max ΔF/s), corrected for media only treatment (negative control), and represented as the percentage of response relative to the no antagonist control. A minimum of three replicates were used for each treatment condition, with a minimum of 8 concentrations to derive the IC50 values reported for each antagonist. The IC50 values for each antagonist, which are shown in Table 4 below, were calculated according to methods described in the assays were performed according to methods described in: Deering-Rice, C. E., Johansen, M. E., Roberts, J. K., Thomas, K. C., Romero, E. G., Lee, J., Yost, G. S., Veranth, J. M., and Reilly, C. A. (2012), Mol. Pharmacol. 81(3), 411-419; Shapiro, D., Deering-Rice, C. E., Romero, E. G., Hughen, R. W., Light, A. R., Veranth, J. M., and Reilly, C. A. (2013), Chem Res. Toxicol., 26, 750-758; and Deering-Rice, C. E., Mitchell, V. K., Romero, E. G., Abdel Aziz, M. H., and Reilly, C. A. (2014), Pharmacol. Res. & Perspectives. 2(5), 1-10.
# T1 sequence (Q9HBA0 whole entry): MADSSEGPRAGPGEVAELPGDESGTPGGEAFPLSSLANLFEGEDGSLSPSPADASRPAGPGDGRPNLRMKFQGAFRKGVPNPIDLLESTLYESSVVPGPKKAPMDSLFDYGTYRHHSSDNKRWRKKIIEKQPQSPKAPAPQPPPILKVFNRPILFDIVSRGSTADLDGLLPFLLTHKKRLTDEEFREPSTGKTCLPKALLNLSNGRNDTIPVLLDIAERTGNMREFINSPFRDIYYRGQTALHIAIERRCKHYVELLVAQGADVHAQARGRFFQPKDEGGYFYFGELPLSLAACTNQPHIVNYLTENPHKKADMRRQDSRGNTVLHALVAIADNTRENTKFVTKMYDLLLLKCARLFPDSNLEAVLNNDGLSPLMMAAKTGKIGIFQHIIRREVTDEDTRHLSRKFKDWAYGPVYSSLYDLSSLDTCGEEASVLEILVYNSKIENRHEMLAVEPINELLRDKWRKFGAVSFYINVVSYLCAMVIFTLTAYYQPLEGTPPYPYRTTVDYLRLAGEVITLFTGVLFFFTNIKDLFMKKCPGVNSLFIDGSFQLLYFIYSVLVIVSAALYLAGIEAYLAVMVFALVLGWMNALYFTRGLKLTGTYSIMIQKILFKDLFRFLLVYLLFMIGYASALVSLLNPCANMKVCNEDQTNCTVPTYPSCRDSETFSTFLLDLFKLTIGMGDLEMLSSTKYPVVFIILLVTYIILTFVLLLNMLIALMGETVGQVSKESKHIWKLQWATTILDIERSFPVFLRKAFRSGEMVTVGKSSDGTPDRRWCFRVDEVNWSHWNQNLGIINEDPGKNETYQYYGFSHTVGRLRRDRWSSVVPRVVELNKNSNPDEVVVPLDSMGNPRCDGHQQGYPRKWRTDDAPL
row,IC50 [nM],Compound
1,21,"N#Cc1ccc(OCC2(COS(=O)(=O)CCN)CN(S(=O)(=O)c3ccc(Cl)cc3Cl)C2)cc1F [Compound 15, (3-((4-Cyano-3-fluorophenoxy)methyl)-1-((2,4-dichlorophenyl)sulfonyl)azetidin-3-yl)methyl 2-aminoethane-1-sulfonate trifluoroacetate salt]"
2,1.3,"N#Cc1ccc(OCC2(CN[C@H]3C[C@H](O)C3)CN(S(=O)(=O)c3ccc(Cl)cc3Cl)C2)cc1F [Compound 42, 4-((1-((2,4-Dichlorophenyl)sulfonyl)-3-((((trans)-3-hydroxycyclobutyl)amino)methyl)azetidin-3-yl)methoxy)-2-fluorobenzonitrile hydrochloride]"
3,241,"COc1cc(C#N)c(F)cc1OCC1(CO)CN(S(=O)(=O)c2ccc(C)cc2C#N)C1 [Compound 110, 4-((1-((2-Cyano-4-methylphenyl)sulfonyl)-3-(hydroxymethyl)azetidin-3-yl)methoxy)-2-fluoro-5-methoxybenzonitrile]"
4,5.2,"N#Cc1ccc(OCC2(CNCC3CCOCC3)CN(S(=O)(=O)c3ccc(Cl)cc3Cl)C2)cc1F [Compound 29, 4-((1-((2,4-Dichlorophenyl)sulfonyl)-3-((((tetrahydro-2H-pyran-4-yl)methyl)amino)methyl)azetidin-3-yl)methoxy)-2-fluorobenzonitrile hydrochloride]"
5,~3000,"Cc1cc(OCC2(CO)CN(S(=O)(=O)c3ccc(Cl)cc3Cl)C2)ccn1 [Compound 95, (1-((2,4-Dichlorophenyl)sulfonyl)-3-(((2-methylpyridin-4-yl)oxy)methyl)azetidin-3-yl)methanol]"
6,231,"COc1ccc(S(=O)(=O)N2CC(CO)(COc3ccc(C#N)c(F)c3)C2)c(Br)c1 [Compound 102, 4-((1-((2-Bromo-4-methoxyphenyl)sulfonyl)-3-(hydroxymethyl)azetidin-3-yl)methoxy)-2-fluorobenzonitrile]"
7,80,"N#Cc1ccc(OCC2(CO)CN(S(=O)(=O)c3ccc(OC(F)(F)F)cc3C#N)C2)cc1F [Compound 107, 4-((1-((2-Cyano-4-trifluoromethoxyphenyl)sulfonyl)-3-(hydroxymethyl)azetidin-3-yl)methoxy)-2-fluorobenzonitrile]"
8,5000,"N#Cc1ccc(OCC2(CO)CN(S(=O)(=O)c3ccc(F)c(Cl)c3)C2)cc1F [Compound 67, 4-((1-((3-chloro-4-fluorophenyl)sulfonyl)-3-(hydroxymethyl)azetidin-3-yl)methoxy)-2-fluorobenzonitrile]"
9,5000,"Cc1nc(C)c(S(=O)(=O)N2CC(CO)(COc3ccc(C#N)c(F)c3)C2)s1 [Compound 65, 4-((1-((2,4-Dimethylthiazol-5-yl)sulfonyl)-3-(hydroxymethyl)azetidin-3-yl)methoxy)-2-fluorobenzonitrile]"
10,510,"CC1(COc2ccc(C#N)cc2)CN(S(=O)(=O)c2ccc(Cl)cc2Cl)C1 [Compound 1, 4-((1-((2,4-Dichlorophenyl)sulfonyl)-3-methylazetidin-3-yl)methoxy)benzonitrile]"
11,0.7,"N#Cc1ccc(OCC2(CNC3CCOCC3)CN(S(=O)(=O)c3ccc(Cl)cc3Cl)C2)cc1F [Compound 18, 4-((1-((2,4-Dichlorophenyl)sulfonyl)-3-(((tetrahydro-2H-pyran-4-yl)amino)methyl)azetidin-3-yl)methoxy)-2-fluorobenzonitrile hydrochloride]"
12,12900,"N#Cc1ccc(OCC2(C(=O)NC3CCOCC3)CN(S(=O)(=O)c3ccc(Cl)cc3Cl)C2)cc1 [Compound 6, 3-((4-cyanophenoxy)methyl)-1-((2,4-dichlorophenyl)sulfonyl)-N-(tetrahydro-2H-pyran-4-yl)azetidine-3-carboxamide]"
13,5,"N#Cc1ccc(OCC2(CO)CN(S(=O)(=O)c3ccc(Cl)cc3C#N)C2)cc1F [Compound 81, 4-((1-((4-Chloro-2-cyanophenyl)sulfonyl)-3-(hydroxymethyl)azetidin-3-yl)methoxy)-2-fluorobenzonitrile]"
